ChEMBL document CHEMBL1821716, “Pyrazolopyridine inhibitors of B-RafV600E. Part 2: structure-activity relationships” (Bioorg Med Chem Lett, 2011)

Columns and labels:
[1] = Inhibition of basal ERK phosphorylation in human MALME-3M cells; assay type: cell-based
[2] = target: Serine/threonine-protein kinase B-raf (Homo sapiens, UniProt P15056, V600E); assay: Inhibition of full length B-Raf V600E mutant
Chain of Serine/threonine-protein kinase B-raf (P15056 2-766 V600E limits assumed): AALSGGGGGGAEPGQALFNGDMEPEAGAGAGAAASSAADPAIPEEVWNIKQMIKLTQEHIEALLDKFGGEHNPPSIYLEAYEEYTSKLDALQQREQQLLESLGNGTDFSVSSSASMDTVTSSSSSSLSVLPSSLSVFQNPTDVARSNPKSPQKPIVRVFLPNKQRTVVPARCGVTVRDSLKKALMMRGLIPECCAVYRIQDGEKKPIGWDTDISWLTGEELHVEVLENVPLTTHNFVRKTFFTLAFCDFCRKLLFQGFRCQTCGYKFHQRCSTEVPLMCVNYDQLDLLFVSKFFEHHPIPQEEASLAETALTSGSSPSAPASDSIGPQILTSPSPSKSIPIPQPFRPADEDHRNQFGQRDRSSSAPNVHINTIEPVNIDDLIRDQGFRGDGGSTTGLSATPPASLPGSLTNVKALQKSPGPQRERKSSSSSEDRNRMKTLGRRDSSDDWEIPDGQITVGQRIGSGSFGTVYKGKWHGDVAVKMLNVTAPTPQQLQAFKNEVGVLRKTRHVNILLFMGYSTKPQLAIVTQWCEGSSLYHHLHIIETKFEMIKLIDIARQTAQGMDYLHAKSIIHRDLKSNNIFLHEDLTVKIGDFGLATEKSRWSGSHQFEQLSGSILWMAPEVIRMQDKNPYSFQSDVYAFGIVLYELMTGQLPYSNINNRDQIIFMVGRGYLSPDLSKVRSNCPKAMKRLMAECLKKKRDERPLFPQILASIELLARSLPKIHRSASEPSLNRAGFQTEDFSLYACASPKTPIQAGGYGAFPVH

SMILES | IC50 [1] | IC50 [2]
O=C(Nc1cnc2[nH]ccc2c1)c1c(F)ccc(NS(=O)(=O)CC(F)(F)F)c1F | 2600 nM | 38 nM
CCCS(=O)(=O)Nc1ccc(F)c(C(=O)Nc2cnc3[nH]nc(OCC)c3c2)c1F | 12 nM | 2.4 nM
O=C(Nc1cnc2[nH]ccc2c1)c1c(F)ccc(NS(=O)(=O)N2CCCC2)c1F | 170 nM | 120 nM
CCCS(=O)(=O)Nc1ccc(Cl)c(C(=O)Nc2cnc3[nH]nc(OC)c3c2)c1 | 250 nM | 61 nM
CCCS(=O)(=O)Nc1cc(F)cc(C(=O)Nc2cnc3[nH]ccc3c2)c1F | 400 nM | 76 nM
CCCS(=O)(=O)Nc1ccc(F)c(C(=O)Nc2cnc3[nH]nc(C(F)(F)F)c3c2)c1F | 280 nM | 5.8 nM
O=C(Nc1cnc2[nH]ccc2c1)c1c(F)ccc(NS(=O)(=O)CC2CC2)c1F | 230 nM | 29 nM
CC(C)CS(=O)(=O)Nc1ccc(F)c(C(=O)Nc2cnc3[nH]ccc3c2)c1F | 200 nM | 140 nM
COc1n[nH]c2ncc(NC(=O)c3c(F)ccc(NS(=O)(=O)CC(C)C)c3F)cc12 | 11 nM | 4.5 nM
CCCS(=O)(=O)Nc1ccc(F)c(C(=O)Nc2cnc3[nH]cc(C(F)(F)F)c3c2)c1F | 230 nM | 6.2 nM
CCCS(=O)(=O)Nc1ccc(F)c(C(=O)Nc2cnc3[nH]ccc3c2)c1 | – | 210 nM
CCCS(=O)(=O)Nc1ccc(F)c(C(=O)Nc2cnc3[nH]cc(CC)c3c2)c1F | 290 nM | 19 nM
CCCS(=O)(=O)Nc1ccc(OC)c(C(=O)Nc2cnc3[nH]nc(OC)c3c2)c1F | – | 2600 nM
COc1n[nH]c2ncc(NC(=O)c3c(F)ccc(NS(=O)(=O)c4cccs4)c3F)cc12 | 30 nM | 0.2 nM
CCCS(=O)(=O)Nc1ccc(C)c(C(=O)Nc2cnc3[nH]ccc3c2)c1F | 1400 nM | 170 nM
CCS(=O)(=O)Nc1ccc(F)c(C(=O)Nc2cnc3[nH]nc(OC)c3c2)c1F | 62 nM | 25 nM
CCCS(=O)(=O)Nc1ccc(Cl)c(C(=O)Nc2cnc3[nH]nc(OC)c3c2)c1Cl | 40 nM | 1.4 nM

SMILES | IC50 [1] | IC50 [2]
CCCS(=O)(=O)Nc1ccc(F)c(C(=O)Nc2cnc3[nH]ncc3c2)c1F | 62 nM | –
O=C(Nc1cnc2[nH]ccc2c1)c1c(F)ccc(NS(=O)(=O)C2CC2)c1F | 710 nM | 99 nM
COc1n[nH]c2ncc(NC(=O)c3c(F)ccc(NS(=O)(=O)c4ccco4)c3F)cc12 | 66 nM | 0.7 nM
CCCS(=O)(=O)Nc1cccc(C(=O)Nc2cnc3[nH]nc(OC)c3c2)c1F | 38 nM | 13 nM
O=C(Nc1cnc2[nH]ccc2c1)c1c(F)ccc(NS(=O)(=O)CCC(F)(F)F)c1F | 270 nM | 33 nM
COc1n[nH]c2ncc(NC(=O)c3c(F)ccc(NS(=O)(=O)C4CC4)c3F)cc12 | 170 nM | 63 nM
COc1n[nH]c2ncc(NC(=O)c3c(F)ccc(NS(=O)(=O)NC(C)C)c3F)cc12 | 630 nM | 110 nM
COc1n[nH]c2ncc(NC(=O)c3c(F)ccc(NS(=O)(=O)c4cn(C)cn4)c3F)cc12 | > 10000 nM | –
CCCS(=O)(=O)Nc1ccc(F)c(C(=O)Nc2cnc3[nH]nc(C)c3c2)c1F | 86 nM | –
CCCS(=O)(=O)Nc1ccc(F)c(C(=O)Nc2cnc3[nH]nc(Br)c3c2)c1F | 44 nM | –
CCCS(=O)(=O)Nc1ccc(Cl)c(C(=O)Nc2cnc3[nH]nc(OC)c3c2)c1F | 20 nM | –
CCCS(=O)(=O)Nc1ccc(F)c(C(=O)Nc2cnc3[nH]ccc3c2)c1C | – | 680 nM
COc1n[nH]c2ncc(NC(=O)c3c(F)ccc(NS(=O)(=O)c4ccccc4)c3F)cc12 | 17 nM | –
CCCS(=O)(=O)Nc1ccc(F)c(C(=O)Nc2cnc3[nH]ccc3c2)c1F | 94 nM | –
CCCS(=O)(=O)Nc1ccc(F)c(C(=O)Nc2cnc3[nH]cc(Br)c3c2)c1F | 39 nM | –
CCCS(=O)(=O)Nc1ccc(F)c(C(=O)Nc2cnc3[nH]nc(OC)c3c2)c1C(F)(F)F | – | 530 nM
